SMILES	melting point [°C]
CCCCC(Cn1cncn1)(C(N)=O)c1ccc(Cl)cc1Cl (centres undefined)	170 to 172
O=S(=O)(c1cc(Cl)ccc1Cl)n1c2cc(O)c(O)cc2c2ccc(O)c(O)c21	> 300
N#Cc1c2ccccc2c(-c2ccc(O[C@H](Cc3ccccc3)C(=O)O)cc2)c2c1sc1ccccc12	145 to 148
COC(=O)COc1cccc(-c2nc(COc3ccc(COc4nn(-c5ccccc5)cc4C=O)cc3OC)c(C)o2)c1	107 to 109
N#Cc1ccccc1-c1cc(-c2cnc3nccnn23)ccc1F	211 to 215
CCCCN(CCCC)c1nc(Nc2ccc3c(c2)C(=O)c2ccccc2C3=O)nc(N(CCCC)CCCC)n1	140 to 145
CC(C)(C)CN1C(=O)CC(=O)N(c2ccccc2Cl)c2cc(Cl)ccc21	245 to 246
CS(=O)(=O)c1ccc(-n2nc(C(F)(F)F)cc2-c2ccc(-c3ncco3)cc2)cc1	190 to 192
NNC(=O)c1cccc(-c2csc(N=C(N)N)n2)n1	233 to 234
CCOC(=O)C(=O)Nc1cc(NC(=O)NC)ccc1O	235 to 236
CCOC=Cc1nc2c(=O)n(Cc3ccccc3)cnc2n1Cc1ccccc1	167 to 168
CCc1nc2c(o1)C(=O)C=C(Nc1ccccc1)C2=O	200
CCOc1c(C)c(N2CCN(c3ccc(OC)cc3)CC2)c(C)c2c1OC(C)(C)C2	151 to 153
COC(=O)c1cn2c3c(c(F)c(F)cc3c1=O)CC(C)N2C (centres undefined)	184 to 185
COc1ccc(CN(C)CCc2ccc(NC(=O)c3cccc4c(=O)c5ccccc5sc34)cc2)cc1OC	180
FC(F)(F)c1cccc(-c2ccnc(S)n2)c1	200 to 205
CCc1ncc([N+](=O)[O-])n1CCS(=O)(=O)CC	130 to 140
CC(=O)c1c(C)sc(C)c1CC(N)=O	123 to 125
COCn1cnc(Cl)c1Cl	41 to 44
Oc1c(CCl)cc(Cl)cc1CCl	88
Cc1cccc(-c2csc(N3C(=O)c4ccccc4C3=O)c2C(=O)O)c1	195
O=C1c2cc(Cl)ccc2NCN1CCN1CCOCC1	82
COc1ccc(-c2nc(N3CCOCC3)c3sc(NS(=O)(=O)c4cccc(/C=C/C(=O)NO)c4)cc3n2)cn1	> 300
Clc1ccc(-c2cnccn2)cc1	77 to 77.5
COC(OC)c1cc(C)nc(NC(=O)NS(=O)(=O)c2ccccc2Cl)n1	150 to 153
CC1NC(=O)NN=C1c1ccc(NC(=O)CO)cc1 (centres undefined)	246 to 248

SMILES	melting point [°C]
CN1C(=O)C(NC(=O)Nc2ccccc2)N(C)C1=O (centres undefined)	188 to 189
Cc1cccc(C)c1C(CNC(=O)OC(C)(C)C)COCc1c(F)cccc1F (centres undefined)	100
CCOC1C=CC(=O)N1S(=O)(=O)c1ccccc1 (centres undefined)	117 to 119
Cc1nc(N)nc(N)c1N=Nc1ccc(Br)cc1	245 to 246
Cc1ccncc1-c1cc2ccncc2c(N)n1	280 to 282
O=C1c2ccc(O)cc2CCC1Cc1ccccc1 (centres undefined)	160 to 162
Clc1ccc(C2CCc3cc(Cl)ccc3O2)cc1 (centres undefined)	99 to 100
CC(=O)C1CCC2C3CCC4CC(O)(C#Cc5ccccn5)CCC4(C)C3CCC12C (centres undefined)	192 to 195
CCCCCCCCOc1cc2cc(CO)c(CO)c(-c3ccnc(NN)c3)c2cc1OC	98 to 102
COc1ccc(C(=O)C2=C(O)C(=O)N(c3nnc(C)s3)C2c2ccc(O)cc2)cc1 (centres undefined)	251
Nc1nc(N)c2ncn(C(O)C3C=CCC3)c2n1 (centres undefined)	152 to 155
C1=CC(c2ccccc2)(c2ccccc2)CCS1	78
O=c1[nH]c(=O)n(CCCl)c2ccccc12	189 to 192
Cc1cc(SC2=C(O)CC(CCc3ccc(O)cc3)(C3CCCC3)OC2=O)c(C(C)(C)C)cc1N (centres undefined)	133 to 135
Cc1ccc(-c2cc(=O)c(Br)c(C(=O)O)o2)cc1	202 to 204
O=C(O)C=CC1=CCCC([N+](=O)[O-])C1 (centres undefined)	158 to 160
CCNc1nc(C)c(C(=O)c2ccc(N)c(N)c2)s1	185 to 225
CC1(C)C(=O)ON(Cc2ccc(Cl)cc2Cl)C1=O	68 to 69.5
CCCc1nn(-c2ccc(C(F)(F)F)cn2)cc1CCCOc1ccc(OC)c(CCC(=O)O)c1	104 to 106
COc1cc(OC)nc(Cc2cccnc2NC(=O)OC(C)(C)C)n1	89 to 92
O=C(O)c1ccc2c(CCCCN3CC=C(c4ccccc4)CC3)c[nH]c2c1	268
Nc1nccc(-c2cccc(OCC(O)CN3CCN(c4cccc(Cl)c4)CC3)c2)n1 (centres undefined)	140 to 141
CC(C)CCS(=O)(=O)NC(=O)OCc1cc(OC(C)C)nn1Cc1ccc(Cl)cc1Cl	104 to 107
CN1CCN(C(=O)COc2ccc(N)cc2)CC1	71 to 73
O=C(C=Cc1cnc2ccccc2c1)NCCCSc1ccncc1	154 to 155
CC(Cn1ccnc1)Cn1cnc2ccc(Br)cc2c1=O (centres undefined)	159 to 162

SMILES	melting point [°C]
CCOC(=O)C1=C(C)NC(CSCO)=C(C(=O)OCC)C1c1cccc([N+](=O)[O-])c1 (centres undefined)	113 to 114
Oc1ccc2c(c1)[C@H](O)[C@H](Oc1cccnc1)CO2 (relative stereo)	194 to 197
Cn1ncc(NCCN2CCC(c3noc4cc(F)ccc34)CC2)c(Cl)c1=O	145 to 147
O=C(Nc1nccs1)c1c(C(F)(F)F)nc(-c2ccccc2)c(-c2ccccc2)c1O	256
CCOC(=O)C(Cc1c(Cl)cc(OC)cc1Cl)(NC(C)=O)C(=O)OCC	154 to 156
CCOC(=O)c1c(O)nsc1C	69
Cc1oc2cc(CCl)ccc2c1C	63 to 65
COc1ccc2ccc3c(c2c1)CC(C(=O)O)CO3 (centres undefined)	165
CC1(C)CC(=O)C(C)(C)c2cc(C=O)ccc21	82 to 84
CN1C(=O)CN(C(=O)CN)C(c2ccccc2)c2cc(Cl)ccc21 (centres undefined)	158 to 160
CN1[C@@H]2CC[C@H]1[C@H](CO)[C@H](c1ccc(Cl)c(Cl)c1)C2	81 to 86
COc1ccc(N2C(=O)C3=C(SCCS3)C2CC(=O)N2CCCCC2)cc1 (centres undefined)	163 to 164
O=P(c1ccccc1)(c1ccccc1)C(F)F	93 to 94
Cc1cccc(C)c1N1CC(C)N(c2c(C)cccc2C)C1=NC(=O)Oc1ccccc1 (centres undefined)	165 to 166
Nc1nc(N)c(C(=O)n2ccnc2)nc1Cl	232 to 234
CN1C(=O)[C@H](NC(=O)/C=C/c2ccc(Cl)cc2Cl)N=C(c2ccccc2)c2ccccc21	137 to 139
CC(=O)NCCC1CCCc2ccc(O)cc21 (centres undefined)	153 to 155
O=C(O)C1Cc2ccccc2N1C(=O)c1ccccc1 (centres undefined)	209 to 210
O=C(O)c1ccc(Br)cc1C(=O)c1ccccc1	185 to 187
Cc1cc(C)c(C(C(N)=O)C(N)=O)c(C)c1	177 to 179
COc1cc([N+](=O)[O-])ccc1S(=O)(=O)N1C(=O)C(NC(C)=O)(c2ccccc2Cl)c2cc(Cl)ccc21 (centres undefined)	205 to 210
Clc1ccc2scc(-c3ccncc3)c2c1	90 to 91
COC(=O)C1(S(=O)(=O)N2CC=C(c3ccc(Br)c(C)c3)CC2)CCOCC1	128 to 130
NC(=O)C1(c2ccc(Br)nc2)CCCC1	211 to 212
CCC(=Cc1ccc(C(=O)O)cc1Cl)[N+](=O)[O-]	179 to 180
CS(=O)(=O)Nc1cc2oc(NC=O)cc(=O)c2cc1Oc1ccccc1	214 to 216

SMILES	melting point [°C]
CCCCOC(=O)Cc1ccc(CNS(=O)(=O)c2ccccc2)cc1	60.5 to 61
CCOC(=O)c1cc2c([nH]1)c(N(C)S(=O)(=O)c1cccs1)cn2Cc1ccccc1	120
O=c1[nH]c(=O)c2cccnc2[nH]1	360
O=[N+]([O-])OCC#CCO	107 to 110
O=C1CCCN1C(c1ccccc1Cl)N1CCN(c2ncccn2)CC1 (centres undefined)	166 to 177
FC(F)(F)CSc1nc(-c2ccccc2)c(-c2ccccc2)[nH]1	186 to 187
N#CC(=CNC1CC1)C(=O)c1cc(F)c(Cl)cc1Cl	94 to 95
COc1cc(OC)nc(Oc2cccc3c2C(=O)OC3Cl)n1 (centres undefined)	143 to 144
O=C1c2ccccc2C(=O)N1CCN1CCC(c2noc3cc(F)ccc23)CC1	143 to 145
CCN[C@H]1CCN(c2c(-c3ccccc3)c(C)c(C#N)c3nc(C4CC4)oc23)C1	209 to 211
CS(=O)(=O)c1ccc(C(=O)C2C(=O)CCCC2=O)c(Cl)c1C1=NOC2OCCC12 (centres undefined)	119
CC(C)(C)NC(=O)c1ccccc1O	78 to 79.5
CC(C#CCn1ccnc1)N1CCN(C)C1=O (centres undefined)	89 to 92
O=C(CCN1CCN(c2ncccn2)CC1)N1CC2CC3CC(C2)CC1C3	117 to 119
Cc1cc(N=Nc2ccccn2)cc(C)c1-c1ccc(-c2c(C)cc(N=Nc3ccccn3)cc2C)o1	206 to 207
CC(C)[C@H](NC(=O)OCc1ccccc1)C(=O)NCC(=O)OC(C)(C)C	139 to 141
O=c1[nH]c2ccccc2n1CCCN1CCN(C(c2ccccc2)c2ccccn2)CC1 (centres undefined)	142
COc1ccccc1Sc1ccc(C=O)c(Cl)c1Cl	137 to 139
CCNS(=O)(=O)c1ccc(-c2cnc3[nH]c(CCc4cc(OC)ccn4)nc3c2)cc1	214 to 216
C=CCc1c(O)ccc2oc(C(=O)OCC)cc12	94 to 95
C=C1N(C2CCCCC2)C(=O)OC12CCN(CCC=C(c1ccc(F)cc1)c1ccc(F)cc1)CC2	145 to 146
Cc1cnc(NCCCNc2ncc(Cc3ccc(C)nc3)c(=O)[nH]2)c(C)c1	104 to 105
COc1ccc(C(=O)N2CCc3nnc(NN)cc3C2)cc1	169 to 172
CCOC(=O)CCCCCC(=O)NCc1cccc2c1C(=O)N(C1CCC(=O)NC1=O)C2=O (centres undefined)	82 to 84
CC1(C)Oc2ccncc2C2OC21 (centres undefined)	208 to 210
COc1ccc2c(c1)Sc1c(cc(OC)c(OC(C)=O)c1Br)N2C	189 to 190

Source: a melting point compilation (Tetko et al.; mined from patent text by program, amines drawn as free bases though some values may be those of a salt)
